# Measured values reported in patent EP0278997A1, “Azapropazone rectal capsules” (SIEGFRIED AKTIENGESELLSCHAFT, priority 1987, dated 1988).
# Values joined by “and” are separate entries in the source; they are usually repeats but may differ in a detail not shown here. Equal entries are not always repeated. Where two headings read alike, the source gives them in different places.
# Test: Bioavailability of the rectal capsule versus i.v. administration (plasma AUC 0-72) in test subjects
# Type: in vivo
# Settings: for AUC at 72 h: human, plasma, iv, read-out: A U C 0 - 72
smiles,measurement,setting,value
"CCCC1C(=O)N2C(N(C)C)=Nc3ccc(C)cc3N2C1=O (stereo not drawn) [Azapropazon, 3-Dimethyl-amino-7-methyl-1,2-(n-propyimaionyi)-1,2-dihydro-1,2.4-benzotriazin]",AUC at 72 h,geometric mean (geom.x) of 6 Probanden,1060 µg·h/mL
same,AUC at 72 h,mean (x) of 6 Probanden,1080 µg·h/mL
same,A U C 0 - 72,"individual Proband, 4320 min",926.46 mcg/ml.Std and 728.31 mcg/ml.Std and 1158.02 mcg/ml.Std and 964.71 mcg/ml.Std and 1466.56 mcg/ml.Std and 1252.36 mcg/ml.Std
